# Measurements from PubChem BioAssay (NCI).
#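 Grown in 96-well plates, cells were treated for 48 hours with each compound at five concentrations. Insufficient inhibition: endpoint recorded as highest concentration tested. GI50 is the concentration that inhibits growth by half. TGI marks complete inhibition of growth.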
# What was measured:
# Test in all cases: NCI-60 cell line screen, 48 h
# [1] = system: 786-0 renal
# [2] = system: A498 renal
# [3] = system: A549 NSCLC
# [4] = system: ACHN renal
# [5] = system: BT-549 breast
# [6] = system: CAKI-1 renal
# [7] = system: CCRF-CEM leukemia
# [8] = system: COLO 205 colon
# [9] = system: DU-145 prostate
# [10] = system: EKVX NSCLC
# [11] = system: HCC-2998 colon
# [12] = system: HCT-116 colon
# [13] = system: HCT-15 colon
# [14] = system: HL-60(TB) leukemia
# [15] = system: HOP-62 NSCLC
# [16] = system: HS 578T breast
# [17] = system: HT29 colon
# [18] = system: IGROV1 ovarian
# [19] = system: K-562 leukemia
# [20] = system: KM12 colon
# [21] = system: LOX IMVI melanoma
# [22] = system: M14 melanoma
# [23] = system: MALME-3M melanoma
# [24] = system: MCF7 breast
# [25] = system: MDA-MB-231 breast
# [26] = system: MDA-MB-435
# [27] = system: MOLT-4 leukemia
# [28] = system: NCI-H226 lung
# [29] = system: NCI-H23 lung
# [30] = system: NCI-H460 lung
# [31] = system: NCI-H522 lung
# [32] = system: NCI/ADR-RES ovarian
# [33] = system: OVCAR-4 ovarian
# [34] = system: OVCAR-5 ovarian
# [35] = system: OVCAR-8 ovarian
# [36] = system: PC-3 prostate
# [37] = system: RPMI-8226 leukemia
# [38] = system: RXF 393 renal
# [39] = system: SF-268 CNS
# [40] = system: SF-295 CNS
# [41] = system: SF-539 CNS
# [42] = system: SK-MEL-2 melanoma
# [43] = system: SK-MEL-28 melanoma
# [44] = system: SK-MEL-5 melanoma
# [45] = system: SK-OV-3 ovarian
# [46] = system: SN12C renal
# [47] = system: SNB-19 CNS
# [48] = system: SNB-75 CNS
# [49] = system: SR leukemia
# [50] = system: SW-620 colon
# [51] = system: T-47D breast
# [52] = system: TK-10 renal
# [53] = system: U251 CNS
# [54] = system: UACC-257 melanoma
# [55] = system: UACC-62 melanoma
# [56] = system: UO-31 renal
smiles,measurement,setting,value
O=[N+]([O-])c1ccc(-c2nnc(SCc3ccc(O)c4ncccc34)o2)cc1,GI50,[1],674 nM
same,TGI,[1],> 100000 nM
same,GI50,[2],2520 nM
same,TGI,[2],> 30400 nM
same,GI50,[3],378 nM
same,TGI,[3],> 100000 nM
same,GI50,[4],360 nM
same,TGI,[4],> 100000 nM
same,GI50,[5],237 nM
same,TGI,[5],> 100000 nM
same,GI50,[6],561 nM
same,TGI,[6],> 100000 nM
same,GI50,[7],451 nM
same,TGI,[7],> 100000 nM
same,GI50,[8],4110 nM
same,TGI,[8],> 84500 nM
same,GI50,[9],467 nM
same,TGI,[9],> 100000 nM
same,GI50,[10],746 nM
same,TGI,[10],> 100000 nM
same,GI50,[11],749 nM
same,TGI,[11],> 100000 nM
same,GI50,[12],189 nM
same,TGI,[12],> 100000 nM
same,GI50,[13],333 nM
same,TGI,[13],> 100000 nM
same,GI50,[14],425 nM
same,GI50,[15],590 nM
same,TGI,[15],> 100000 nM
same,GI50,[16],417 nM
same,TGI,[16],> 100000 nM
same,GI50,[17],4840 nM
same,TGI,[17],> 100000 nM
same,GI50,[18],649 nM
same,TGI,[18],> 100000 nM
same,GI50,[19],363 nM
same,TGI,[19],> 100000 nM
same,GI50,[20],572 nM
same,TGI,[20],> 100000 nM
same,GI50,[21],334 nM
same,TGI,[21],> 39000 nM
same,GI50,[22],455 nM
same,TGI,[22],7560 nM
same,GI50,[23],569 nM
same,TGI,[23],> 100000 nM
same,GI50,[24],224 nM
same,TGI,[24],> 100000 nM
same,GI50,[25],625 nM
same,TGI,[25],> 100000 nM
same,GI50,[26],331 nM
same,TGI,[26],> 100000 nM
same,GI50,[27],508 nM
same,TGI,[27],> 100000 nM
same,GI50,[28],3520 nM
same,TGI,[28],> 100000 nM
same,GI50,[29],407 nM
same,TGI,[29],> 100000 nM
same,GI50,[30],260 nM
same,TGI,[30],> 62700 nM
same,GI50,[31],381 nM
same,TGI,[31],> 100000 nM
same,GI50,[32],551 nM
same,TGI,[32],> 100000 nM
same,GI50,[33],1010 nM
same,TGI,[33],> 100000 nM
same,GI50,[34],3710 nM
same,TGI,[34],> 100000 nM
same,GI50,[35],310 nM
same,TGI,[35],> 100000 nM
same,GI50,[36],358 nM
same,TGI,[36],> 100000 nM
same,GI50,[37],402 nM
same,TGI,[37],> 100000 nM
same,GI50,[38],732 nM
same,TGI,[38],> 100000 nM
same,GI50,[39],608 nM
same,TGI,[39],> 100000 nM
same,GI50,[40],315 nM
same,TGI,[40],> 100000 nM
same,GI50,[41],877 nM
same,TGI,[41],> 100000 nM
same,GI50,[42],390 nM
same,GI50,[43],1120 nM
same,TGI,[43],> 100000 nM
same,GI50,[44],357 nM
same,TGI,[44],> 30600 nM
same,GI50,[45],379 nM
same,TGI,[45],3920 nM
same,GI50,[46],326 nM
same,TGI,[46],> 100000 nM
same,GI50,[47],351 nM
same,TGI,[47],> 100000 nM
same,GI50,[48],386 nM
same,TGI,[48],> 100000 nM
same,GI50,[49],424 nM
same,TGI,[49],> 100000 nM
same,GI50,[50],547 nM
same,TGI,[50],> 100000 nM
same,GI50,[51],923 nM
same,TGI,[51],69000 nM
same,GI50,[52],785 nM
same,TGI,[52],> 100000 nM
same,GI50,[53],181 nM
same,TGI,[53],> 100000 nM
same,GI50,[54],511 nM
same,TGI,[54],27500 nM
same,GI50,[55],810 nM
same,TGI,[55],12600 nM
same,GI50,[56],347 nM
same,TGI,[56],> 53000 nM
